Experimental data as given in patent US8088761B2, “Enzyme inhibitors” (Cancer Research Technology Limited, priority 2005, dated 2012).

Key:
[1] = target: T1, Aurora-A (Homo sapiens, UniProt O14965); assay: Flashplate Aurora A enzyme inhibition assay; format: biochemical; conditions: Flashplate assay; IC50 range; read-out: Aurora-A inhibition
T1 sequence (O14965 1-403): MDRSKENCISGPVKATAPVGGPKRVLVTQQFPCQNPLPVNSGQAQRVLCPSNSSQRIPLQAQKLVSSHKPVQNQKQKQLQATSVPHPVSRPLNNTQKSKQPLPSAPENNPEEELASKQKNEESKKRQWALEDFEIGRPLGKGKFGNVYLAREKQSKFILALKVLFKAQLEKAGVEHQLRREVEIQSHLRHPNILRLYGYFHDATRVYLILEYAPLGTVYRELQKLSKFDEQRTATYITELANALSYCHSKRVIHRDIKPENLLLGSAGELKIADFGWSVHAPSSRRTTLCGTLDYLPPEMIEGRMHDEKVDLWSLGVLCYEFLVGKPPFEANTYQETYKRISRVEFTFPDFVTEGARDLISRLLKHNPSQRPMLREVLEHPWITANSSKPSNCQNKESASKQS
How it was run: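 This is a radiometric Flashplate format: plates were precoated with DTT, and compound (in 2% DMSO) was mixed with kinase buffer (pH 7.5 Tris, MgCl2, NaCl) containing 1 mM MBP, 20 μM ATP and ^33P-ATP. The reaction was started with 250 ng Aurora-A per well and incubated 2 h at RT. It was then stopped by 10 mM sodium pyrophosphate washing, and plates were scintillation-counted.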

[2] = tested on: HCT116 cells; assay: Cell viability assay (MTT) in HCT116 cell line; format: cell-based; conditions: Homo sapiens, HCT-116, 72 hrs, IC50 range, read-out: HCT116 cell growth inhibition
How it was run: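 MTT read-out (4 hrs, 37 °C, DMSO extraction) following 72 hrs of treatment with 0-50 μM Aurora inhibitor. HCT116 cells were plated a day earlier and tested in triplicate; IC50 derived from the curve.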

Row | SMILES | IC50 [1] [nM] | IC50 [2] [nM]
1 | O=C(CN1CCN(c2c(Cl)cnc3[nH]c(-c4ccc(CN5CCOCC5)cc4)nc23)CC1)Nc1nccs1 [Example 76, 2-{4-[6-Chloro-2-(4-morpholin-4-ylmethyl-phenyl)-3H-imidazo[4,5-b]pyridin-7-yl]-piperazin-1-yl}-N-thiazol-2-yl-acetamide] | < 500 | < 500
2 | Brc1cnc2[nH]c(-c3ccc(Cn4cccn4)cc3)nc2c1N1CCN(Cc2ccncc2)CC1 [Example 78, 2-(4-((1H-Pyrazol-1-yl)methyl)phenyl)-6-bromo-7-(4-(pyridin-4-ylmethyl)piperazin-1-yl)-3H-imidazo[4,5-b]pyridine] | < 500 | < 500
3 | Clc1cnc2[nH]c(-c3ccc(CN4CCOCC4)cc3)nc2c1N1CCN(Cc2cccnc2)CC1 [Example 79, 6-Chloro-2-(4-morpholin-4-ylmethyl-phenyl)-7-(4-pyridin-3-ylmethyl-piperazin-1-yl)-3H-imidazo[4,5-b]pyridine] | < 500 | < 500
4 | Cc1cc(CN2CCN(c3c(Cl)cnc4[nH]c(-c5ccc(CN6CCOCC6)cc5)nc34)CC2)no1 [Example 80, 6-Chloro-7-[4-(5-methyl-isoxazol-3-ylmethyl)-piperazin-1-yl]-2-(4-morpholin-4-ylmethyl-phenyl)-3H-imidazo[4,5-b]pyridine] | < 500 | 500 to 2000
5 | COc1cccc(-c2nc3c(N4CCN(Cc5cc(C)on5)CC4)c(Br)cnc3[nH]2)c1 [Example 81, 6-Bromo-2-(3-methoxy-phenyl)-7-[4-(5-methyl-isoxazol-3-ylmethyl)-piperazin-1-yl]-3H-imidazo[4,5-b]pyridine] | < 500 | 500 to 2000
6 | Brc1cnc2[nH]c(-c3ccc(OCCN4CCOCC4)cc3)nc2c1N1CCN(Cc2ccncc2)CC1 [Example 82, 6-Bromo-2-[4-(2-morpholin-4-yl-ethoxy)-phenyl]-7-(4-pyridin-4-ylmethyl-piperazin-1-yl)-3H-imidazo[4,5-b]pyridine] | < 500 | < 500
7 | Clc1cnc2[nH]c(-c3ccc(Cn4cccn4)cc3)nc2c1N1CCN(Cc2ccncc2)CC1 [Example 83, 2-(4-((1H-Pyrazol-1-yl)methyl)phenyl)-6-chloro-7-(4-(pyridin-4-ylmethyl)piperazin-1-yl)-3H-imidazo[4,5-b]pyridine] | < 500 | < 500
8 | O=C(CN1CCN(c2c(Cl)cnc3[nH]c(-c4ccc(Cn5cccn5)cc4)nc23)CC1)Nc1nccs1 [Example 84, 2-(4-(2-(4-((1H-Pyrazol-1-yl)methyl)phenyl)-6-chloro-3H-imidazo[4,5-b]pyridin-7-yl)piperazin-1-yl)-N-(thiazol-2-yl)acetamide] | < 500 | < 500
9 | Clc1ccc(CN2CCN(c3c(Br)cnc4[nH]c(-c5ccc(Cn6cccn6)cc5)nc34)CC2)cc1 [Example 85, 2-(4-((1H-Pyrazol-1-yl)methyl)phenyl)-6-bromo-7-(4-(4-chlorobenzyl)piperazin-1-yl)-3H-imidazo[4,5-b]pyridine] | < 500 | < 500
10 | CN1CCN(c2ccc(-c3nc4c(N5CCN(Cc6ccc(Cl)cc6)CC5)c(Br)cnc4[nH]3)cc2)CC1 [Example 86, 6-Bromo-7-[4-(4-chloro-benzyl)-piperazin-1-yl]-2-[4-(4-methyl-piperazin-1-yl)-phenyl]-3H-imidazo[4,5-b]pyridine] | < 500 | < 500
11 | O=C(CN1CCN(c2c(Cl)cnc3[nH]c(-c4ccc5c(c4)OCCO5)nc23)CC1)Nc1nccs1 [Example 87, 2-{4-[6-Chloro-2-(2,3-dihydro-benzo[1,4]dioxin-6-yl)-3H-imidazo[4,5-b]pyridin-7-yl]-piperazin-1-yl}-N-thiazol-2-yl-acetamide] | < 500 | 500 to 2000
12 | CN(C)c1ccc(-c2nc3c(N4CCN(CC(=O)N(C)c5nccs5)CC4)c(Br)cnc3[nH]2)cc1 [Example 89, 2-(4-(6-Bromo-2-(4-(dimethylamino)phenyl)-3H-imidazo[4,5-b]pyridin-7-yl)piperazin-1-yl)-N-methyl-N-(thiazol-2-yl)acetamide] | < 500 | < 500
13 | CN(C)c1ccc(-c2nc3c(N4CCC(CC(=O)Nc5nccs5)CC4)c(Br)cnc3[nH]2)cc1 [Example 90, 2-{1-[6-Bromo-2-(4-dimethylamino-phenyl)-3H-imidazo[4,5-b]pyridin-7-yl]-piperidin-4-yl}-N-thiazol-2-yl-acetamide] | < 500 | 500 to 2000
14 | NCc1cccc(-c2nc3c(N4CCN(Cc5cccnc5)CC4)c(Br)cnc3[nH]2)c1 [Example 92, (3-(6-Bromo-7-(4-(pyridin-3-ylmethyl)piperazin-1-yl)-3H-imidazo[4,5-b]pyridin-2-yl)phenyl)methanamine] | < 500 | 500 to 2000

Second part, the compound after the results:

Row | IC50 [1] [nM] | IC50 [2] [nM] | SMILES
15 | < 500 | 2000 to 50000 | COc1ccc(-c2nc3c(N4CCN(Cc5cccnc5)CC4)c(Br)cnc3[nH]2)cn1 [Example 94, 6-Bromo-2-(6-methoxypyridin-3-yl)-7-(4-(pyridin-3-ylmethyl)piperazin-1-yl)-3H-imidazo[4,5-b]pyridine]
16 | < 500 | 500 to 2000 | CC(c1ccncc1)N1CCN(c2c(Br)cnc3[nH]c(-c4cccc(CN5CCN(C)CC5)c4)nc23)CC1 (centres unmarked) [Example 95, 6-Bromo-2-(3-((4-methylpiperazin-1-yl)methyl)phenyl)-7-(4-(1-(pyridin-4-yl)ethyl)piperazin-1-yl)-3H-imidazo[4,5-b]pyridine]
17 | < 500 | 500 to 2000 | CN1CCN(Cc2ccc(-c3nc4c(N5CCN(Cc6cccnc6)CC5)c(Br)cnc4[nH]3)cc2)CC1 [Example 96, 6-Bromo-2-(4-((4-methylpiperazin-1-yl)methyl)phenyl)-7-(4-(pyridin-3-ylmethyl)piperazin-1-yl)-3H-imidazo[4,5-b]pyridine]
18 | < 500 | 2000 to 50000 | CC(C)(C)OC(=O)NCCc1nc2c(N3CCN(Cc4cccnc4)CC3)c(Br)cnc2[nH]1 [Example 97, tert-Butyl 2-(6-bromo-7-(4-(pyridin-3-ylmethyl)piperazin-1-yl)-3H-imidazo[4,5-b]pyridin-2-yl)ethylcarbamate]
19 | 2000 to 10000 | 2000 to 50000 | NCCc1nc2c(N3CCN(Cc4cccnc4)CC3)c(Br)cnc2[nH]1 [Example 98, 2-(6-Bromo-7-(4-(pyridin-3-ylmethyl)piperazin-1-yl)-3H-imidazo[4,5-b]pyridin-2-yl)ethanamine]
20 | 2000 to 10000 | 2000 to 50000 | CC(C)(C)OC(=O)NCc1nc2c(N3CCN(Cc4cccnc4)CC3)c(Br)cnc2[nH]1 [Example 99, tert-Butyl (6-bromo-7-(4-(pyridin-3-ylmethyl)piperazin-1-yl)-3H-imidazo[4,5-b]pyridin-2-yl)methylcarbamate]
21 | 2000 to 10000 | 2000 to 50000 | NCc1nc2c(N3CCN(Cc4cccnc4)CC3)c(Br)cnc2[nH]1 [Example 100, (6-Bromo-7-(4-(pyridin-3-ylmethyl)piperazin-1-yl)-3H-imidazo[4,5-b]pyridin-2-yl)methanamine]
22 | < 500 | 500 to 2000 | CN1CCN(c2ccc(-c3nc4c(N5CCN(Cc6cccnc6)CC5)c(Br)cnc4[nH]3)cc2)CC1 [Example 101, 6-Bromo-2-(4-(4-methylpiperazin-1-yl)phenyl)-7-(4-(pyridin-3-ylmethyl)piperazin-1-yl)-3H-imidazo[4,5-b]pyridine]
